Results reported in patent US8389538B2, “Rexinoid compound having alkoxy group” (National University Corporation Okayama University, priority 2007, dated 2013).
Read-outs that look alike come from different tables or passages of the source.

Key:
[1] = system: Human leukemia cell strain HL-60; assay: HL-60 differentiation induction (NBT reduction method); type: cell-based; settings: for Retinoid synergistic activity BA(%) / Retinoid activity BA(%): maximum differentiation inducing rate relative to total cell number
Description: Human leukemia cell strain HL-60 differentiates into granulocytes (neutrophils) to come to have an ability to express active oxygen. […] A method for measuring differentiation inducibility of cells into granulocytes by using this principle is referred to as NBT reduction method. So, the differentiation inducibility of the synthesized compound was measured by NBT reduction method. […] Each compound was dissolved in dimethylsulfoxide (DMSO) into 20 mM to prepare a stock solution. NBT was prepared into 0.2 w/v % by using PBS (−) 2 hours before use and incubated at 37° C. TPA was dissolved in ethanol (EtOH) into 2 mg/mL to prepare a stock solution. This TPA solution was prepared into 20 μg/mL by using PBS (−) at the time of use. […] The action of RXR agonist is enhanced by the combined use of that and RAR agonist. […] After four days cultivation, cells were collected by centrifugation (4° C., 1500 rpm, 5 minutes). After these cells were seeded onto 1 mL of a fresh growth medium, then 1 mL of 0.2 w/v % NBT solution and 20 μl of 20 μg/ml of TPA solution were added, and incubation was carried out in the incubator containing 5% CO2 at 37° C. for 30 minutes. Then, stained cell number and total cell number were counted on a cell counter. Meanwhile, the measurement was conducted three times by counting 200 cells or more at a time and a differentiation inducing rate was calculated from a mean value obtained by averaging them. […] Meanwhile, “inert” means that differentiation inducibility can not be observed even at 10 μM. Likewise, b) BA (bioactivity) (%) refers to the maximum differentiation inducing rate relative to the total cell number in this test.

[2] = biological target: T1, RXRα (Homo sapiens, UniProt P19793); assay: RXR reporter gene assay (luciferase) in COS-1 cells, RXRα; type: cell-based; settings: for Emax: COS-1; for EC50 / RXRα Emax (%): COS-1 cells; for EC50: half of maximum transcriptional activation potential; for RXRα Emax (%): relative to PA024 (1 μM) = 100%
T1 construct: expressed in transfected cells; host or cells: COS-1 cells
T1 sequence (P19793 1-462): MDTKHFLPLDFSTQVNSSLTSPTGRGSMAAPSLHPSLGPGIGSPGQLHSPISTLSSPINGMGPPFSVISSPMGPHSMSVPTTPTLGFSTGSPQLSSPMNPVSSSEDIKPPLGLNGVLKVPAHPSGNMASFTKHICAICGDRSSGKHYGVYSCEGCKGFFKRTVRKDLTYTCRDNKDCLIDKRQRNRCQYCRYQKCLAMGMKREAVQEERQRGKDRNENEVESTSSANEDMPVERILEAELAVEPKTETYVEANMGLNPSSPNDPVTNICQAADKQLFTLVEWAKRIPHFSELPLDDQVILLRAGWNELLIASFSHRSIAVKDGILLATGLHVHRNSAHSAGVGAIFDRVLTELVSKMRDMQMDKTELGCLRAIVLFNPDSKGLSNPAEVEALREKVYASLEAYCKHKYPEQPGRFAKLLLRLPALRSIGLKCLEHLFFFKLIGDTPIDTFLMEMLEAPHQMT
Description: (§1) Most of nuclear receptors are transcription factors associated with regulating transcription, so that reporter gene assay is conducted as a means of measuring its transcription activity. An expression plasmid for RXR receptor protein and a reporter plasmid were introduced into cells such as COS-1 cells and HeLa cells to cause overexpression. And, when RXR agonist is bound to the receptor, transcription is induced in a ligand dependent manner, and a protein which is referred to as fusion protein downstream is produced. The binding of this fusion protein to the binding site on the reporter plasmid initiates the transcription to produce luciferase downstream. RXR agonistic activity was measured by measuring this luciferase activity.
(§2) Dulbecco's Modified Eagle MEM medium (DMEM) was used as growth medium.
(§3) Passage was conducted by removing culture supernatant from the cell culture grown in a 100 mm culture dish, collecting cells by trypsinization, centrifuging at 1000 rpm at 4° C. for 3 minutes, then dispersing cells by adding growth medium and growing them in a 100 mm culture dish (15 mL of growth medium) at 37° C. in the presence of 5% CO2.
(§4) Transformation was conducted using Effectene™ Transfection Reagent (QIAGEN). Further, Luciferase Assay System was used for evaluating luciferase activity. Am80 was used for the positive control of RAR, and 9-cis retinoic acid was used for the positive control of RXR. They were dissolved in DMSO for use as a stock solution and measured on every plate to be assayed.
(§5) • On day 1: COS-1 cells were seeded along with 15 mL of growth medium in a 60 mm culture dish at 50×10^4 cells and were cultured over night. • On day 2: Transformation was conducted by lipofection using Effectene™ Transfection Reagent. • On day 3: 16 to 18 hours later, the culture supernatant was removed, cells were collected by trypsinization, centrifugation was conducted at 1000 rpm at 4° C. for 3 minutes, then cells were dispersed by adding growth medium, and then the cells were seeded on a 96-well white plate at 2.0×10^4 cells/well. Then, each compound was added at DMSO concentration of 1% or below. • On day 4: 24 hours later, 25 μL of the supernatant was used for SEAP measurement, and the rest cell-containing solution was used for measuring luciferase activity.
(§6) In Table 5, a) EC50 indicated a concentration giving the half of the maximum transcriptional activation potential.

[3] = biological target: T2, RXRβ (Homo sapiens, UniProt P28702); assay: RXR reporter gene assay (luciferase) in COS-1 cells, RXRβ; type: cell-based; settings: for Emax: COS-1; for EC50 / RXRβ Emax (%): COS-1 cells; for EC50: half of maximum transcriptional activation potential; for RXRβ Emax (%): relative to PA024 (1 μM) = 100%
T2 construct: expressed in transfected cells; host or cells: COS-1 cells
T2 sequence (P28702 1-533): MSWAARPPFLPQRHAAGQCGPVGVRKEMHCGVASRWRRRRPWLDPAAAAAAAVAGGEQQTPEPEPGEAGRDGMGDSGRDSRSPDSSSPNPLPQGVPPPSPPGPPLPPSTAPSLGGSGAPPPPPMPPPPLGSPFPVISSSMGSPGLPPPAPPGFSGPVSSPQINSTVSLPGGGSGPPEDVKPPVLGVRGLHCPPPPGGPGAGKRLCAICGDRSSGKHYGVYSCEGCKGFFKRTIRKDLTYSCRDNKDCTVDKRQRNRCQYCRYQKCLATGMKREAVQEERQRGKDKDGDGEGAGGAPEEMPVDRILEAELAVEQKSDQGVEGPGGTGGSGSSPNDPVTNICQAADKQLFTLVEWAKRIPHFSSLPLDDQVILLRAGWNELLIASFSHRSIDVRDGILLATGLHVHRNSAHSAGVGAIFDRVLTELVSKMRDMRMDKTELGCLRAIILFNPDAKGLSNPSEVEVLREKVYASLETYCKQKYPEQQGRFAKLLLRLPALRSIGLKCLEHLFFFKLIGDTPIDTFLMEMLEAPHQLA
Description: as §1, §2, §3, §4, §5, §6

[4] = biological target: T3, RXRγ (Homo sapiens, UniProt P48443); assay: RXR reporter gene assay (luciferase) in COS-1 cells, RXRγ; type: cell-based; settings: for Emax: COS-1; for EC50 / RXRγ Emax (%): COS-1 cells; for EC50: half of maximum transcriptional activation potential; for RXRγ Emax (%): relative to PA024 (1 μM) = 100%
T3 construct: expressed in transfected cells; host or cells: COS-1 cells
T3 sequence (P48443 1-463): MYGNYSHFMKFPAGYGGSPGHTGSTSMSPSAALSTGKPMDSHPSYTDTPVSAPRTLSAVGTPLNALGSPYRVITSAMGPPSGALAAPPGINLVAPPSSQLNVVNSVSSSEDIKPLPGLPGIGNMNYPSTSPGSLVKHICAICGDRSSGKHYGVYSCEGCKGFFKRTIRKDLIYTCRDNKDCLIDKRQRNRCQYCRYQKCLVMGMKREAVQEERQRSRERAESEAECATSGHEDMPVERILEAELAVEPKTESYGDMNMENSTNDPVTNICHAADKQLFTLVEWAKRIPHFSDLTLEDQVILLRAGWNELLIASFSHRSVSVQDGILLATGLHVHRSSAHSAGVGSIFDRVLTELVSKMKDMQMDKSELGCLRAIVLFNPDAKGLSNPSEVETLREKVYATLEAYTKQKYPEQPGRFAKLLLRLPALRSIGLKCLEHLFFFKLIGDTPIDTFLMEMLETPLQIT
Description: as §1, §2, §3, §4, §5, §6

[5] = system: edema induced by carrageenin; assay: Carrageenin edema test; type: in vivo; settings: rats, 10 mg/kg oral, 3 hours before carrageenin; 3 hours after the administration of carrageenin; hind foot pads
Description: Carrageenin edema test was used for anti-inflammatory test by using rats. 10 mg/kg compound 1a (NEt-3IP) was orally administered to five rats in a group, and then 3 hours later, 1% carrageenin solution, which was an edema-inducing substance, was subcutaneously administered to the hind foot pads (0.1 mL/rat). Then, 1, 2, 3 and 4 hours after that, the thickness of edema of the hind foot pads was measured. […] The rate of inhibiting edema was 27% 3 hours after the administration of carrageenin.

[6] = system: Histone Deacetylase (HDAC); assay: HDAC Activity/Inhibitor Screening Assay Kit (Cayman); type: biochemical; settings: at 100 μM
Description: Activity Evaluation Method 3: Histone Deacetylase (HDAC) Inhibitory Activity
HDAC inhibitory activity was evaluated for compounds represented by formulae XVII and XVIII, through the use of HDAC Activity/Inhibitor Screening Assay Kit supplied by Cayman and according to that protocol.

[7] = Am80 present at 3.3×10^−10 M, half of maximum differentiation inducing rate, read-out: Retinoid synergistic activity SEC50
[8] = Homo sapiens, HL-60, 96 h, test compound alone, concentration giving half of maximum differentiation inducing rate, four days culture, read-out: Retinoid activity EC50
[9] = test compound alone, concentration giving half of maximum differentiation inducing rate, four days culture, read-out: Retinoid activity EC50

Row | SMILES | EC50 [1, 7] | Retinoid synergistic activity BA(%) ([1]; Am80 present at 3.3×10^−10 M) | Retinoid activity BA(%) ([1]; test compound alone) | EC50 [2] | EC50 [3] | EC50 [4] | EC50 [1, 9] | also measured
1 | CCN(c1ccc(C(C)C)c(OC(C)C)c1)c1ccc(C(=O)O)cn1 [Compound 1a] | 10 nM | 80% | 4% | 27 nM | 35 nM | > 380 nM | – | EC50 [1, 8]: > 10000 nM; Emax [2]: 130%; selectivity for RXRα/β over RXRγ ([2]; reporter gene assay, RXRα/β versus RXRγ): ≥ 10 times; Emax [3]: 110%; Emax [4]: > 88%; rate of inhibiting edema [5]: 27%
2 | CC(C)Oc1cc(N(c2ccc(C(=O)O)cn2)S(C)(=O)=O)ccc1C(C)C [Compound 1b] | 900 nM | 63% | 44% | – | – | – | > 10000 nM | –
3 | CC(C)Oc1cc(Nc2ccc(C(=O)O)cn2)ccc1C(C)C [Compound 1c] | 4500 nM | 63% | 24% | – | – | – | > 10000 nM | –
4 | CCCOc1cc(N(CC)c2ccc(C(=O)O)cn2)ccc1C(C)C [Compound 2a] | 23 nM | 74% | 4% | – | – | – | > 10000 nM | –
5 | CCCOc1cc(N(c2ccc(C(=O)O)cn2)S(C)(=O)=O)ccc1C(C)C [Compound 2b] | 800 nM | 63% | 50% | – | – | – | > 10000 nM | –
6 | CCCOc1cc(Nc2ccc(C(=O)O)cn2)ccc1C(C)C [Compound 2c] | 4300 nM | 60% | 50% | – | – | – | > 10000 nM | –
7 | CCN(c1ccc(OC(C)C)c(C(C)C)c1)c1ccc(C(=O)O)cn1 [Compound 4a] | 23 nM | 64% | – | > 660 nM | > 1300 nM | > 350 nM | > 10000 nM | RXRα Emax (%) [2]: >110%; RXRβ Emax (%) [3]: >80%; RXRγ Emax (%) [4]: >81%
8 | CC(C)Oc1ccc(Nc2ccc(C(=O)O)cn2)cc1C(C)C [Compound 4c] | > 10000 nM | 29% | 24% | – | – | – | > 10000 nM | –
9 | CCCOc1ccc(Nc2ccc(C(=O)O)cn2)cc1C(C)C [Compound 5c] | > 10000 nM | 15% | 3% | – | – | – | > 10000 nM | –
10 | CCN(c1ccc(C(C)C)c(OC(C)C)c1)c1ncc(C(=O)O)cn1 [Compound 6a] | 12 nM | 87% | 3% | 6 nM | 18 nM | > 58 nM | – | EC50 [1, 8]: > 10000 nM; Emax [2]: 110%; Emax [3]: 100%; Emax [4]: 105%
11 | CCN(c1ccc(C(C)C)c(OCC(C)C)c1)c1ncc(C(=O)O)cn1 [Compound 7a] | – | – | – | 2.9 nM | 7.3 nM | 4.9 nM | – | RXRα Emax (%) [2]: 110%; RXRβ Emax (%) [3]: 140%; RXRγ Emax (%) [4]: 105%
12 | CCN(c1ccc(C(C)C)c(OC(C)C)c1)c1ccc(/C=C/C(=O)O)cn1 [XVII] | – | – | – | – | – | – | – | HDAC activity inhibition rate [6]: 78%
